Measurements reported in patent US9579322B2, “Methods for treating neurologic disorders” (EIP Pharma, LLC, priority 2014, dated 2017).

Columns and labels:
[1] = system: IL-1β signaling and IL-1β production; test: Inhibition of IL-1beta signaling versus IL-1beta production; format: cell-based, human; settings: for potency for inhibition of cytokine (IL-1beta) signaling relative to inhibition of cytokine production: signaling versus production
PSD95 = PSD95 ELISA of cortex and hippocampus extracts; format: in vivo, Fischer rats
Experimental: (§1) The primary objective of this study was to investigate whether pre-treatment with compound VX-745 alleviates cognitive defects in aged rats. Plasma concentration of VX-745 was determined with LC-MS/MS at the end of the study from samples collected 1 hour post dosing. In addition, protein levels of PSD95 in ventral cortex and hippocampus, and levels of IL-1β in the hippocampus were analyzed by specific ELISA assays to evaluate the potential anti-inflammatory effects of VX-745 in the brain
(§2) One hour after the last vehicle or VX-745 morning dosing, the animals (10 per dosing group) were deeply anesthetized with pentobarbital and blood samples were collected by cardiac puncture. 500 μl of blood was collected into EDTA microtubes, centrifuged, and plasma collected. The brains were perfused with heparinized saline, and the brains were collected. Right hemisphere was post-fixed by immersion in 4% PFA in 0.1 M PB for 24 h. After a brief wash with phosphate buffer, the hemisphere was cryoprotected in 30% sucrose in PB for 2-3 days, after which it was frozen on liquid nitrogen and stored at −80° C. for optional future immunohistochemical analysis. […]
(§3) Cortex and hippocampal soluble extracts were analyzed for PSD95 content using an ELISA kit (Cusabio Biotech Ltd., #CSB-EL006938RA, Lot 031154387), while the levels of Il-1β were analyzed only from hippocampus (R&D Systems, #RLB00, Lot 308544).

IL-1β = IL-1β ELISA of hippocampus extracts; format: in vivo, Fischer rats
Experimental: as §1, §2, §3

[2] = system: sensory-motor recovery after tMCAO; test: Transient MCAO in rats, functional recovery; format: in vivo, Sprague-Dawley rats; settings: for change in cylinder test performance from day 7 to day 35: relative to vehicle; for functional recovery, 7-point neuroscore / functional recovery, 20-point neuroscore / functional recovery, limb placing: day 3 to day 42, versus vehicle
Experimental: The objective of this study was to investigate whether chronic twice-a-day treatment with VX-745 started at 48 hours post-occlusion provides sensory-motor recovery and neuroprotection in rats subjected to 120 min middle cerebral artery occlusion (tMCAO) at day 0. Seven and 20-point Neuroscore tests were performed to study sensory-motor deficits and general condition on days 1, 3, 7, 14, 21, 28, 35 and 42 post-ischemia. Cylinder test was performed on days 7, 14, 21 and 35 post-ischemia and limb-placing tests on days 1, 3, 7, 14, 21, 28, 35 and 42. Infarct volume was evaluated by T2-MRI at 24 h post-ischemia and rats were allocated to treatment groups based on the lesion data on day 2 and treatment was started after MRI on day 2. Methods—Male Sprague-Dawley rats were subjected to twice-a-day chronic treatment with VX-745 starting at 48 h after 120 min tMCAO. Lesion size was measured at 24 h with MRI and rats were allocated to dosing groups on day 2 (tMCAO performed on day 0) based on lesion size and limb placing results. Rats were treated with 2 different doses and underwent sensorimotor behavioral test throughout the experiment. Seven and 20-point Neuroscore and limb placing tests were performed to study sensory-motor deficits and general condition before occlusion and on days 1, 3, 7, 14, 21, 28, 35 and 42 post-ischemia. Cylinder test was performed before occlusion and on days 7, 14, 21 and 35 post-ischemia. Animals. Altogether 45 adult male Sprague Dawley rats, purchased from Charles River Laboratories (Sulzfeld, Germany), and weighing 250-300 g were used for the experiment. Animals were housed at a standard temperature (22±1° C.) and in a light-controlled environment (lights on from 7 am to 8 pm) with ad libitum access to food and water. • Group A: 15 tMCAO animals treated twice-a-day with vehicle from day 2 to 42 (5 ml/kg, p.o) • Group B: 15 tMCAO animals treated twice-a-day with VX-745 from day 2 to 42 (1.5 mg/kg, p.o). • Group C: 15 tMCAO animals treated twice-a-day with VX-745 from day 2 to 42 (4.5 mg/kg, p.o). Transient MCAO Transient focal cerebral ischemia was produced by MCA occlusion at Day 0 in male Sprague-Dawley rats according to Koizumi with modifications (Koizumi et al. Jpn. J. Stroke 8:1-8, 1986). The rats were anesthetized with 5% isoflurane (in 70% N2O and 30% O2; flow 300 ml/min). During the operation the concentration of anesthetic was reduced to 1.0-2.0%. The rectal temperature was maintained at 37.0±1.0° C. with a homeothermic blanket system. After midline skin incision, the right common carotid artery (CCA) was exposed, and the external carotid artery (ECA) was ligated distal from the carotid bifurcation. A 0.22-mm diameter monofilament nylon thread, with blunted tip, was inserted 22-23 mm into the internal carotid artery (ICA) up to the origin of MCA. After the monofilament insertion, CCA was occluded for 2 hours with a suture. After 120 min of ischemia, the MCA blood flow was restored by removal of the filament and the suture. The wound was closed, disinfected, and the animals were allowed to recover from anesthesia. The rats were carefully monitored for possible post-surgical complications after the tMCAO. The rats were fed with standard laboratory diet suspended in tap water after the tMCAO. To prevent dehydration all rats were given an i.p. injection of saline (4 mL per rat) once or twice-a-day as needed. Drug Delivery. VX-745 or vehicle was administered p.o. (5 ml/kg) starting after MRI at 48 h post-ischemia (i.e. Day 2) and continued twice-a day (morning and afternoon) until endpoint day 42. MRI acquisitions in vivo for all rats were performed at 24 h after tMCAO (i.e. […] Rats were allocated to treatment groups on day 2 based on the lesion data and treatment was started on day 2. A 20-point Neuroscore test was used to assess post-ischemic motor and behavioral deficits. The neurological test was conducted by a blinded investigator at pre-stroke (baseline) and on days 1, 3, 7, 14, 21, 28, 35 and 42 post-ischemia. […]

paw swelling = settings: 10 mg/kg, reference compound in arthritis model; cited from earlier work

VX-745
IC50 for inhibition of IL-1β signaling relative to IC50 for inhibition of IL-1β production ([1]; human systems, prior, previously undisclosed studies): approximately half
potency for inhibition of cytokine (IL-1beta) signaling relative to inhibition of cytokine production [1]: approximately twice
potency for inhibition of cytokine (IL-1beta) signaling relative to inhibition of cytokine production ([1]; listed as VX745): two-fold higher
PSD95 protein levels (PSD95; 1.5 mg/kg): no evident effects
PSD95 protein levels (PSD95; 4.5 mg/kg versus aged vehicle-treated group, p=0.063 Mann-Whitney): statistical trend towards higher levels of PSD95
IL-1β levels in the hippocampus (IL-1β; 1.5 mg/kg): no evident effects
IL-1β levels in the hippocampus (IL-1β; 4.5 mg/kg, p=0.038 Mann-Whitney, similar to young rats): lower relative to the aged vehicle-treated group
change in cylinder test performance from day 7 to day 35 ([2]; 1.5 mg/kg p.o. twice-a-day): a trend (p=0.088, two-sided t-test) towards increased improvement
functional recovery, 7-point neuroscore ([2]; 1.5 mg/kg): not further improve functional recovery
functional recovery, 20-point neuroscore ([2]; 1.5 mg/kg): not further improve functional recovery
functional recovery, limb placing ([2]; 1.5 mg/kg): not further improve functional recovery
change in cylinder test performance from day 7 to day 35 ([2]; 4.5 mg/kg p.o. twice-a-day): not evident
functional recovery, 7-point neuroscore ([2]; 4.5 mg/kg): not further improve functional recovery
functional recovery, 20-point neuroscore ([2]; 4.5 mg/kg): not further improve functional recovery
functional recovery, limb placing ([2]; 4.5 mg/kg): not further improve functional recovery
functional recovery, 1.5 mg/kg group compared with 4.5 mg/kg group ([2]; all measures, change analysis): consistently better
inhibition of paw swelling (paw swelling): not as effective at inhibiting paw swelling as other compounds assayed
